Test results published in ChEMBL document CHEMBL1150705, “Plant anticancer agents XLIV. Cytotoxic constituents from Stizophyllum riparium” (1987).
Values after ≈ are worked out from the molar mass of the structure shown.

Tested on: P388
Assay: Cytotoxicity against mouse P388 cells
Assay type: functional
Conditions: read-out: ED50 (the source's name)

## CC(=O)C1=CC[C@H]2C3=CCC4=C[C@@H](O)[C@H](O)C[C@]4(C)[C@H]3C[C@@H](O)[C@]12C [STIZOPHYLLIN]
  EC50: 0.07 µg/mL (≈ 0.203 µM)
